Data reported in US6696484B2, “Method and compositions for regulation of 5-alpha reductase activity” (University of Chicago Office of Technology and Intellectual …, priority 1997, dated 2004).
“And” between values parts separate entries of the source, which are not always exact repeats. Equal entries are not always repeated.

Experiments:
hamster flank organ [1] = experiment: Testosterone-stimulated growth of the pigmented macules of hamster flank organs; format: in vivo, Syrian golden hamsters; settings: 0.5 μg testosterone + 1 mg compound topically daily, 18 days; for Pigmented macule area: castrated male hamsters, mean±SEM;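 for all read-outs here: prepubertal Syrian golden hamsters castrated at 4 weeks, ethanol vehicle on one flank organ, macule long and short axes gauged by caliper 1 day after final dose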
[2] = target: T1, type 2 human 5α-reductase (Homo sapiens, UniProt P31213); experiment: Cell-free enzymatic assay of 5α-reductase (testosterone to DHT), type 2; format: biochemical; design: expressed in transfected cells; host or cells: rat 1A cells infected with pMV7 retrovirus and selected with G418; microsomes for the cell-free assay; settings: for inhibition at 100 µM: read-out: percent inhibition of 5α-reductase activity, cell-free assay, Type 2, 100 μM compound; for IC50: microsomes from rat 1A cells expressing human type 2 5α-reductase, read-out: Cell-free assay IC50, 5α-reductase Type 2
T1 sequence (P31213 1-254): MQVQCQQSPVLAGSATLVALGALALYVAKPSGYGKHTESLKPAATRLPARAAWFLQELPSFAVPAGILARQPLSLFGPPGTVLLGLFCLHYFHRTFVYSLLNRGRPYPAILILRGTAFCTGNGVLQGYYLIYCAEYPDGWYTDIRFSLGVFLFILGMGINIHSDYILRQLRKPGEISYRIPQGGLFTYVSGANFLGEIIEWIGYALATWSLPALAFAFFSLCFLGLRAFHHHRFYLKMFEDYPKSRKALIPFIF

[3] = target: T2, type 1 human 5α-reductase (Homo sapiens, UniProt P18405); experiment: Cell-free enzymatic assay of 5α-reductase (testosterone to DHT), type 1; settings: for inhibition at 100 µM: read-out: percent inhibition of 5α-reductase activity, cell-free assay, Type 1, 100 μM compound; for percent inhibition of 5α-reductase activity, cell-free assay, Type 1: 100 μM compound
T2 sequence (P18405 1-259): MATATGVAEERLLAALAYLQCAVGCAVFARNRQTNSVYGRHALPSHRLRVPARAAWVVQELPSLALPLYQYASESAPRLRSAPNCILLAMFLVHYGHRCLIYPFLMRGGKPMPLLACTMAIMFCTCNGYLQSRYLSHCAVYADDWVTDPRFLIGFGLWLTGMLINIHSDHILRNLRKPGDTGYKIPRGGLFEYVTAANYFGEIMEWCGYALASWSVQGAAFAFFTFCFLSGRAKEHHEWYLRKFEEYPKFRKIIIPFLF

[4] = target: T2, type 1 human 5α-reductase; experiment: Whole-cell assay of 5α-reductase, type 1; format: cell-based; design: expressed in transfected cells; host or cells: rat 1A cells infected with pMV7 retrovirus and selected with G418; microsomes for the cell-free assay, intact cells for the whole-cell assay; settings: for IC50: rat 1A cells expressing human type 1 5α-reductase; for inhibition at 100 µM: read-out: percent inhibition of 5α-reductase activity, whole-cell assay, Type 1
5α-reductase = experiment: Cell-free 5α-reductase assay, isozyme not given; format: biochemical, human; settings: isozyme not stated
[5] = target: T1, type 2 human 5α-reductase; experiment: Whole-cell assay of 5α-reductase, type 2; format: cell-based; design: expressed in transfected cells; host or cells: rat 1A cells infected with pMV7 retrovirus and selected with G418; intact cells for the whole-cell assay; settings: for inhibition at 100 µM: read-out: percent inhibition of 5α-reductase activity, whole-cell assay, Type 2, 100 μM compound; for IC50: rat 1A cells expressing human type 2 5α-reductase
hamster flank organ [6] = experiment: DHT-stimulated growth of the pigmented macules of hamster flank organs; format: in vivo, Syrian golden hamsters
Protocol: Prepubertal male Syrian golden hamsters, castrated at 4 weeks of age, were obtained from Harlan Sprague-Dawley Co. (Madison, Wis.). Bilateral orchiectomy was performed under anesthesia. The hamsters were housed individually in plastic cages and had free access to Purina rodent chow and water, and were maintained on a 12-h light/12-h dark cycle. Hamsters were used 1-2 weeks after castration and were divided into groups of 4-6 or 9-11 animals. Hair on the lower back of each animal was shaved weekly with an electric hair clipper to expose the flank organs. A treatment solution (5 μl with ethanol as vehicle) was applied topically to the flank organ once a day using a Pipetteman and a polypropylene disposable tip. The treatment solution contained either (a) ethanol alone, (b) an androgen (testosterone or DHT), (c) a test compound, or (d) a combination of an androgen and a test compound. For each hamster, one flank organ was treated while the other organ was not treated. The surface of the flank organ was wiped with an alcohol pad to remove residual compound before each treatment. At the end of each experiment (18 days), animals were killed by CO2 asphyxiation or an intraperitoneal injection of […]. Flank organs from both the treated and untreated sides were examined 1 day after the last treatment by the methods described below. The body weight of each animal was recorded before and after treatment. Experiments were repeated at least twice to assure reproducibility. The “Guide for the care and use of laboratory animals” (NIH publication no. 85-28, revised 1988) and the regulations of the U.S. Department of Agriculture were followed throughout the experiments.
In this study, the growth of the flank organ was determined by measuring the length of the long axis and the short axis of the pigmented spot (pigmented macule) with a caliper with a digital display (Digimatic; Mitutoyo Corporation, Japan). The surface area (in millimeters squared) of the spot was calculated as the product of the long axis and the short axis (Gomez and Frost 1975). The areas of the pigmented spots after treatment with ethanol alone or with test compound (in ethanol) alone were less than 10% of the areas of the pigmented spots after treatment with testosterone alone. These values were deducted from the experimental values and are compared in Tables 8-10. For each experiment, the means and standard error of the means (SEM) of the areas of the untreated and treated macules were computed separately for each treatment group. Within each experiment, an overall F-test (one way ANOVA) was used to test the null hypothesis that the mean sizes of the treated macules were the same in all groups, and Dunnett's multiple range test was used to examine differences between the treatment groups (i.e., green tea catechin+androgen, fatty acid+androgen, EGC derivative+androgen, or fatty acid derivative+androgen) and the control group (androgen treatment only). The Mann-Whitney test was used to examine differences between DHT-treated and the DHT and EGCG-treated groups. P-values <0.05 were taken as indicating statistical significance in all tests (Hochberg and Tamhane 1987).
Each group comprised four to six castrated male hamsters. At the end of the treatment period, the areas of the pigmented macules were determined and are presented as means±SEM in Table 8.
Each group comprised four to six castrated male hamsters. At the end of the treatment period, the areas of the pigmented macules were determined and are expressed as means±SEM as shown in Table 10.

With `CCCCC/C=C\C/C=C\C/C=C\CCCCC(=O)O` [Gamma-Linolenic Acid, Gamma-Linolenic Acid C18:3 CIS 6.9,12] the “Inhibition (percent decrease in macule area vs androgen-treated macules)” value (hamster flank organ [1]) was 82% and the Pigmented macule area (hamster flank organ [1]) was 3.15 ± 0.42 mm^2.

`O=C1c2ccccc2C(=O)c2c(O)c(O)cc(O)c21` [Purpurin] was tested, and the inhibition at 100 µM [2] was 20% and the inhibition at 100 µM [3] was 95%.

Compound `CC(Cc1ccc(O)c(O)c1)C(C)Cc1ccc(O)c(O)c1` (centres unmarked) [Nordihydroguaiaretic acid] has an inhibition at 100 µM [2] of 80%, an IC50 [4] of 19 µM and an IC50 [3] of 19 µM.

For `COc1cc(CCC(=O)CC(=O)CCc2ccc(O)cc2)ccc1O` [Demethoxytetrahydrocurcumin, demethoxytetrahydrocurcumin], the “percent inhibition of 5α-reductase activity, cell-free assay, Type 1” value [3] was 23%.

In the case of `O=c1cc(-c2ccccc2)oc2cc(O)cc(O)c12` [Chrysin], the inhibition at 100 µM [2] is reported as 1% and the inhibition at 100 µM [3] is reported as 2%.

Compound `O=c1ccc2cc(O)c(O)cc2o1` [Esculetin, 6,7-dihydroxycoumarin] has an IC50 (5α-reductase) greater than 100 µM, an inhibition at 100 µM [2] of 13% and an inhibition at 100 µM [3] of 7%.

For `O=C1c2ccccc2C(=O)c2c1cc(S(=O)(=O)[O-])c(O)c2O.[Na+]` [Alizarin red S], the “percent inhibition of 5α-reductase activity, whole-cell assay, Type 1” value ([4]; 100 μM compound) was 22%.

`COc1cc2ccc(=O)oc2c(O)c1O` [Fraxetin, 7,8-dihydroxy-6-methoxycoumarin] showed an IC50 (5α-reductase) greater than 100 µM, an inhibition at 100 µM [2] of 8% and an inhibition at 100 µM [3] of 2%.

In the case of `O=c1ccc2c(-c3ccccc3S(=O)(=O)O)c3ccc(O)c(O)c3oc-2c1O` [Pyrogallol red, pryrogallolsulfonephthalein], the inhibition at 100 µM [2] is reported as 27% and the inhibition at 100 µM [3] is reported as 97%.

Work on `CCCCC/C=C\C/C=C\CCCCCCCC(=O)O` [Linoleic Acid, Linoleic Acid C18:2 CIS 9,12] yielded an inhibition at 100 µM [2] of 85%, an inhibition at 100 µM [5] of 77% and an inhibition at 100 µM ([4]; 100 μM compound) of 78%. For the same compound, the inhibition at 100 µM [3] was 99%.

For `CCCCC/C=C\C/C=C\C/C=C\CCCCC(=O)O[C@@H]1Cc2c(O)cc(O)cc2O[C@@H]1c1cc(O)c(O)c(O)c1` [EGC-γ-linoleneate acid, EGC-γ-linoleneate], the “Inhibition (percent decrease in macule area vs androgen-treated macules)” value (hamster flank organ [1]) was 68%, the Pigmented macule area (hamster flank organ [1]) was 5.50 ± 0.56 mm^2 and the “Inhibition (percent decrease in macule area vs androgen-treated macules)” value (hamster flank organ [1]; listed as EGC-3 ester of γ-LA) was “about 70%”. It also gave an IC50 [5] of less than 15 µM and an IC50 [4] of less than 15 µM.

With `C=CCc1ccc(O)c(OC)c1` [Eugenol] the IC50 [2] was 100 µM.

Work on `O=c1oc2c(O)c(O)cc3c(=O)oc4c(O)c(O)cc1c4c23` [Ellagic acid] yielded an IC50 (5α-reductase) greater than 100 µM.

Work on `COc1cc(/C=C/CO)ccc1O` [Coniferol, coniferyl alcohol] yielded an IC50 [2] of 100 µM, an inhibition at 100 µM [2] of 49% and an inhibition at 100 µM [3] of 10%.

With `O=C1c2ccccc2C(=O)c2ccccc21` [Anthraquinone] the IC50 (5α-reductase) was greater than 100 µM.

For `O=C1C=CC(=C(c2ccc(O)c(O)c2)c2ccccc2S(=O)(=O)O)C=C1O` (mixture of isomers) [Pyrocatechol violet, pyrocatecholsulfonephthalein], the IC50 [2] was 100 µM.

In the case of `CCCC/C=C\CCCCCCCC(=O)O` [myristoleic acid], the “Inhibition (percent decrease in macule area vs androgen-treated macules)” value (hamster flank organ [1]) is reported as 73% and the Pigmented macule area (hamster flank organ [1]) is reported as 4.63 ± 0.66 mm^2.

`O=c1c(O)c(-c2ccc(O)cc2O)oc2cc(O)cc(O)c12` [Morin] showed an inhibition at 100 µM [2] of 33% and an inhibition at 100 µM [3] of 6%.

For `COc1cc(/C=C/C(=O)CC(=O)/C=C/c2ccc(O)c(OC)c2)ccc1O` [Curcumin], the “Inhibition (percent decrease in macule area vs androgen-treated macules)” value (hamster flank organ [1]) was 87%, the Pigmented macule area (hamster flank organ [1]) was 2.40 ± 0.65 mm^2 and the “Inhibition (percent decrease in macule area vs androgen-treated macules)” value (hamster flank organ [6]; 0.5 μg DHT + 1 mg compound topically daily, 18 days) was 31%. It also gave a Pigmented macule area (hamster flank organ [6]; 0.5 μg DHT + 1 mg compound topically daily, 18 days, mean±SEM) of 9.50 ± 0.21 mm^2.

In the case of `C[C@]12CCC(=O)C[C@@H]1CC[C@@H]1[C@@H]2CC[C@]2(C)[C@@H](O)CC[C@@H]12` [DHT, 5α-dihydrotestosterone, reference compound], the “Pigmented macule area, androgen alone (control)” value (hamster flank organ [6]; 0.5 μg DHT alone topically daily, 18 days, mean±SEM) is reported as 20.80 ± 1.10 mm^2 and 13.67 ± 0.96 mm^2 and the “stimulation of flank organ growth relative to the maximum stimulation” value (hamster flank organ [6]; 0.5 μg DHT per flank organ per day) is reported as 50-70%.

With `C[C@@H]1O[C@@H](OC[C@H]2O[C@@H](Oc3c(-c4ccc(O)c(O)c4)oc4cc(O)cc(O)c4c3=O)[C@H](O)[C@@H](O)[C@@H]2O)[C@H](O)[C@H](O)[C@H]1O` [Rutin] the inhibition at 100 µM [2] was 0% and the inhibition at 100 µM [3] was 4%.

With `O=c1c(O)cccc2cc(O)c(O)c(O)c12` [Purpurogallin] the inhibition at 100 µM [2] was 31% and the inhibition at 100 µM [3] was 81%.

With `CCCC/C=C\CCCCCCCC(=O)O[C@@H]1Cc2c(O)cc(O)cc2O[C@@H]1c1cc(O)c(O)c(O)c1` [EGC-myristoleate, EGC-3-myristoleate] the “Inhibition (percent decrease in macule area vs androgen-treated macules)” value (hamster flank organ [1]) was 71%, the Pigmented macule area (hamster flank organ [1]) was 5.00 ± 0.42 mm^2 and the “Inhibition (percent decrease in macule area vs androgen-treated macules)” value (hamster flank organ [1]; listed as EGC-3 ester of MA) was “about 70%”. The IC50 [5] was less than 15 µM and the IC50 [4] was less than 15 µM.

With `CC/C=C\C/C=C\C/C=C\CCCCCCCC(=O)O` [Alpha-Linolenic Acid, Alpha-Linolenic Acid C18:3 CIS 9,12,15] the IC50 [2] was 9 µM, the inhibition at 100 µM [2] was 84% and the IC50 [5] was 23 µM. It also gave an inhibition at 100 µM [5] of 86%, an IC50 [4] of 29 µM and an inhibition at 100 µM ([4]; 100 μM compound) of 82%. The IC50 [3] was 8 µM and the inhibition at 100 µM [3] was 99%.

Work on `O=C(/C=C/c1ccc(O)c(O)c1)OCCc1ccccc1` [Caffeic acid phenethyl ester] yielded an IC50 (5α-reductase) of 25 µM, an inhibition at 100 µM [2] of 36% and an inhibition at 100 µM [5] of 98%. For the same compound, the inhibition at 100 µM ([4]; 100 μM compound) was 99% and the inhibition at 100 µM [3] was 97%.

In the case of “cis or traps-9,11 or 10,12 octadecadienoic acid [Conjugated Octadecadienonic Acid]”, the “percent inhibition of 5α-reductase activity, cell-free assay, Type 2” value ([2]; 100 μM compound) is reported as 81%, the IC50 [2] is reported as 30 µM and the “percent inhibition of 5α-reductase activity, cell-free assay, Type 1” value [3] is reported as 99%. It also gave an IC50 ([3]; read-out: Cell-free assay IC50, 5α-reductase Type 1, microsomes from rat 1A cells expressing human type 1 5α-reductase) of 10 µM.
